Data: US20250381179A1, “CHROMAN-BASED COMPOUNDS FOR TREATING CANCER” (priority 2024, published 2025)

Experiment: Phase 1 study: safety and tolerability (TEAEs, NCI CTCAE v5.0)
Experimental: The study employed an open-label, 3+3 design, with the option of adding backfill patients to each cohort cleared and deemed safe. […] Tumor responses were assessed every 2 cycles using RECIST v1.1 criteria. […] The study also involves an ongoing dose escalation study where participants receive 100 mg, 200 mg, 300 mg, 400 mg, and 600 mg once daily (QD) dose levels.
Safety was assessed through the analysis of the reported incidence of treatment-emergent AEs. Treatment-emergent AEs are those with an onset on or after the initiation of therapy and will be graded according to NCI CTCAE Version 5.0. Other safety endpoints, including laboratory results, vital signs, and ECG findings, were summarized for all patients in the Safety set.

[1] = Cohort 2/200 mg QD, patient 1, first listed event
[2] = Cohort 2/200 mg QD, patient 1, second listed event

O=C1CC[C@H](N2Cc3cc(N4CCN(CC5CCN(c6ccc([C@@H]7c8ccc(O)cc8OC[C@@H]7c7ccccc7)cc6F)CC5)CC4)ccc3C2=O)C(=O)N1 [compound (1-g), (S)-3-(5-(4-((1-(2-fluoro-4-((3S,4R)-7-hydroxy-3-phenylchroman-4-yl)phenyl)piperidin-4-yl)methyl)piperazin-1-yl)-1-oxoisoindolin-2-yl)piperidine-2,6-dione]
TEAE: Nausea (400 mg QD (N = 6)): 1 (16.7) n (%)
TEAE: Neutrophil Count Decreased (400 mg QD (N = 6)): 2 (33.3) n (%)
TEAE: Oedema Peripheral (400 mg QD (N = 6)): 1 (16.7) n (%)
TEAE: Ophthalmic Migraine (400 mg QD (N = 6)): 0 n (%)
TEAE: Oral Pain (400 mg QD (N = 6)): 0 n (%)
TEAE: Pain In Extremity (400 mg QD (N = 6)): 0 n (%)
TEAE: Pharyngitis (400 mg QD (N = 6)): 0 n (%)
TEAE: Platelet Count Decreased (400 mg QD (N = 6)): 1 (16.7) n (%)
TEAE: Pleural Effusion (400 mg QD (N = 6)): 0 n (%)
TEAE: Pneumonia (400 mg QD (N = 6)): 0 n (%)
TEAE: Productive Cough (400 mg QD (N = 6)): 0 n (%)
TEAE: Rash Maculo-Papular (400 mg QD (N = 6)): 0 n (%)
TEAE: Rhinitis Allergic (400 mg QD (N = 6)): 0 n (%)
TEAE: Rib Fracture (400 mg QD (N = 6)): 0 n (%)
TEAE: Seizure (400 mg QD (N = 6)): 0 n (%)
TEAE: Sepsis (400 mg QD (N = 6)): 0 n (%)
TEAE: Tremor (400 mg QD (N = 6)): 0 n (%)
TEAE: Upper Respiratory Tract Infection (400 mg QD (N = 6)): 0 n (%)
TEAE: Urinary Tract Infection (400 mg QD (N = 6)): 0 n (%)
TEAE: Vaginal Haemorrhage (400 mg QD (N = 6)): 0 n (%)
TEAE: Vomiting (400 mg QD (N = 6)): 0 n (%)
related TEAE: Alopecia (400 mg QD (N = 6)): 1 (16.7) n (%)
related TEAE: Arthralgia (400 mg QD (N = 6)): 0 n (%)
related TEAE: Constipation (400 mg QD (N = 6)): 1 (16.7) n (%)
related TEAE: Diarrhea (400 mg QD (N = 6)): 1 (16.7) n (%)
related TEAE: Dysgeusia (400 mg QD (N = 6)): 1 (16.7) n (%)
related TEAE: Eructation (400 mg QD (N = 6)): 1 (16.7) n (%)
related TEAE: Fatigue (400 mg QD (N = 6)): 0 n (%)
related TEAE: Flatulence (400 mg QD (N = 6)): 1 (16.7) n (%)
related TEAE: Hot Flush (400 mg QD (N = 6)): 0 n (%)
related TEAE: Hyperhidrosis (400 mg QD (N = 6)): 0 n (%)
related TEAE: Nail Disorder (400 mg QD (N = 6)): 1 (16.7) n (%)
related TEAE: Nausea (400 mg QD (N = 6)): 1 (16.7) n (%)
related TEAE: Neutrophil Count Decreased (400 mg QD (N = 6)): 2 (33.3) n (%)
related TEAE: Platelet Count Decreased (400 mg QD (N = 6)): 1 (16.7) n (%)
related TEAE: Tremor (400 mg QD (N = 6)): 0 n (%)
related TEAE: Vomiting (400 mg QD (N = 6)): 0 n (%)
Patients with Any Compound (1-g) related TEAE (600 mg QD (N = 4)): 2 (50.0) n (%)
Patients with Any TEAE (600 mg QD (N = 4)): 2 (50.0) n (%)
TEAE: Abdominal Distension (600 mg QD (N = 4)): 0 n (%)
TEAE: Abdominal Pain (600 mg QD (N = 4)): 0 n (%)
TEAE: Acute Kidney Injury (600 mg QD (N = 4)): 0 n (%)
TEAE: Adrenal Insufficiency (600 mg QD (N = 4)): 0 n (%)
TEAE: Alopecia (600 mg QD (N = 4)): 0 n (%)
TEAE: Anaemia (600 mg QD (N = 4)): 0 n (%)
TEAE: Anxiety (600 mg QD (N = 4)): 0 n (%)
TEAE: Arthralgia (600 mg QD (N = 4)): 0 n (%)
TEAE: Axillary Vein Thrombosis (600 mg QD (N = 4)): 0 n (%)
TEAE: Back Pain (600 mg QD (N = 4)): 1 (25.0) n (%)
TEAE: Basal Cell Carcinoma (600 mg QD (N = 4)): 0 n (%)
TEAE: Breast Pain (600 mg QD (N = 4)): 0 n (%)
TEAE: Confusional State (600 mg QD (N = 4)): 0 n (%)
TEAE: Constipation (600 mg QD (N = 4)): 1 (25.0) n (%)
TEAE: Cough (600 mg QD (N = 4)): 0 n (%)
TEAE: Covid-19 Pneumonia (600 mg QD (N = 4)): 0 n (%)
TEAE: Dehydration (600 mg QD (N = 4)): 0 n (%)
TEAE: Diarrhoea (600 mg QD (N = 4)): 0 n (%)
TEAE: Dizziness (600 mg QD (N = 4)): 0 n (%)
TEAE: Dysgeusia (600 mg QD (N = 4)): 0 n (%)
TEAE: Dyspepsia (600 mg QD (N = 4)): 0 n (%)
TEAE: Dyspnoea (600 mg QD (N = 4)): 0 n (%)
TEAE: Dysuria (600 mg QD (N = 4)): 0 n (%)
TEAE: Eructation (600 mg QD (N = 4)): 0 n (%)
TEAE: Fall (600 mg QD (N = 4)): 0 n (%)
TEAE: Fatigue (600 mg QD (N = 4)): 0 n (%)
TEAE: Flatulence (600 mg QD (N = 4)): 0 n (%)
TEAE: Fracture (600 mg QD (N = 4)): 0 n (%)
TEAE: Fungal Infection (600 mg QD (N = 4)): 0 n (%)
TEAE: Haematoma (600 mg QD (N = 4)): 0 n (%)
TEAE: Hot Flush (600 mg QD (N = 4)): 1 (25.0) n (%)
TEAE: Hyperglycaemia (600 mg QD (N = 4)): 0 n (%)
TEAE: Hyperhidrosis (600 mg QD (N = 4)): 1 (25.0) n (%)
TEAE: Hypokalaemia (600 mg QD (N = 4)): 0 n (%)
TEAE: Hypotension (600 mg QD (N = 4)): 0 n (%)
TEAE: Influenza Like Illness (600 mg QD (N = 4)): 0 n (%)
TEAE: Insomnia (600 mg QD (N = 4)): 0 n (%)
TEAE: Lower Respiratory Tract Congestion (600 mg QD (N = 4)): 0 n (%)
TEAE: Lymphocyte Count Decreased (600 mg QD (N = 4)): 0 n (%)
TEAE: Muscle Spasm (600 mg QD (N = 4)): 0 n (%)
TEAE: Muscular Weakness (600 mg QD (N = 4)): 0 n (%)
TEAE: Musculoskeletal Stiffness (600 mg QD (N = 4)): 0 n (%)
TEAE: Nail Disorder (600 mg QD (N = 4)): 0 n (%)
TEAE: Nasal Congestion (600 mg QD (N = 4)): 0 n (%)
TEAE: Nausea (600 mg QD (N = 4)): 0 n (%)
TEAE: Neutrophil Count Decreased (600 mg QD (N = 4)): 1 (25.0) n (%)
TEAE: Oedema Peripheral (600 mg QD (N = 4)): 0 n (%)
TEAE: Ophthalmic Migraine (600 mg QD (N = 4)): 0 n (%)
TEAE: Oral Pain (600 mg QD (N = 4)): 0 n (%)
TEAE: Pain In Extremity (600 mg QD (N = 4)): 0 n (%)
TEAE: Pharyngitis (600 mg QD (N = 4)): 0 n (%)
TEAE: Platelet Count Decreased (600 mg QD (N = 4)): 0 n (%)
TEAE: Pleural Effusion (600 mg QD (N = 4)): 0 n (%)
TEAE: Pneumonia (600 mg QD (N = 4)): 0 n (%)
TEAE: Productive Cough (600 mg QD (N = 4)): 0 n (%)
TEAE: Rash Maculo-Papular (600 mg QD (N = 4)): 0 n (%)
TEAE: Rhinitis Allergic (600 mg QD (N = 4)): 0 n (%)
TEAE: Rib Fracture (600 mg QD (N = 4)): 0 n (%)
TEAE: Seizure (600 mg QD (N = 4)): 0 n (%)
TEAE: Sepsis (600 mg QD (N = 4)): 0 n (%)
TEAE: Tremor (600 mg QD (N = 4)): 0 n (%)
TEAE: Upper Respiratory Tract Infection (600 mg QD (N = 4)): 0 n (%)
TEAE: Urinary Tract Infection (600 mg QD (N = 4)): 0 n (%)
TEAE: Vaginal Haemorrhage (600 mg QD (N = 4)): 0 n (%)
TEAE: Vomiting (600 mg QD (N = 4)): 0 n (%)
related TEAE: Alopecia (600 mg QD (N = 4)): 0 n (%)
related TEAE: Arthralgia (600 mg QD (N = 4)): 0 n (%)
related TEAE: Constipation (600 mg QD (N = 4)): 1 (25.0) n (%)
related TEAE: Diarrhea (600 mg QD (N = 4)): 0 n (%)
related TEAE: Dysgeusia (600 mg QD (N = 4)): 0 n (%)
related TEAE: Eructation (600 mg QD (N = 4)): 0 n (%)
related TEAE: Fatigue (600 mg QD (N = 4)): 0 n (%)
related TEAE: Flatulence (600 mg QD (N = 4)): 0 n (%)
related TEAE: Hot Flush (600 mg QD (N = 4)): 1 (25.0) n (%)
related TEAE: Hyperhidrosis (600 mg QD (N = 4)): 1 (25.0) n (%)
related TEAE: Nail Disorder (600 mg QD (N = 4)): 0 n (%)
related TEAE: Nausea (600 mg QD (N = 4)): 0 n (%)
related TEAE: Neutrophil Count Decreased (600 mg QD (N = 4)): 1 (25.0) n (%)
related TEAE: Platelet Count Decreased (600 mg QD (N = 4)): 0 n (%)
related TEAE: Tremor (600 mg QD (N = 4)): 0 n (%)
related TEAE: Vomiting (600 mg QD (N = 4)): 0 n (%)
correlation of TEAE incidence with dose level (100-600 mg QD): did not seem to correlate with increasing dose levels
dose limiting toxicities (100-600 mg QD, 37 patients): No dose limiting toxicities were observed
participants with TEAEs that led to dose interruption (Cohort 1 (100 mg QD)): 3 participants
CTCAE Grade of TEAE leading to dose interruption: Fall (Cohort 1/100 mg QD, patient 1): 2
Duration of TEAE leading to dose interruption: Fall (Cohort 1/100 mg QD, patient 1): 1 days
Related to Compound (1-g), TEAE leading to dose interruption: Fall (Cohort 1/100 mg QD, patient 1): No
CTCAE Grade of TEAE leading to dose interruption: Fatigue (Cohort 1/100 mg QD, patient 2): 3
Related to Compound (1-g), TEAE leading to dose interruption: Fatigue (Cohort 1/100 mg QD, patient 2): No
CTCAE Grade of TEAE leading to dose interruption: Confusional state (Cohort 1/100 mg QD, patient 3): 2
Duration of TEAE leading to dose interruption: Confusional state (Cohort 1/100 mg QD, patient 3): 2 days
Related to Compound (1-g), TEAE leading to dose interruption: Confusional state (Cohort 1/100 mg QD, patient 3): No
participants with TEAEs that led to dose interruption (Cohort 2 (200 mg QD)): 4 participants
CTCAE Grade of TEAE leading to dose interruption: Anaemia [1]: 2
Duration of TEAE leading to dose interruption: Anaemia [1]: 28 days
Related to Compound (1-g), TEAE leading to dose interruption: Anaemia [1]: No
CTCAE Grade of TEAE leading to dose interruption: Anaemia [2]: 3
Related to Compound (1-g), TEAE leading to dose interruption: Anaemia [2]: No
CTCAE Grade of TEAE leading to dose interruption: Fatigue (Cohort 2/200 mg QD, patient 2): 2
CTCAE Grade of TEAE leading to dose interruption: Muscular weakness (Cohort 2/200 mg QD, patient 2): 2
Related to Compound (1-g), TEAE leading to dose interruption: Fatigue (Cohort 2/200 mg QD, patient 2): No
Related to Compound (1-g), TEAE leading to dose interruption: Muscular weakness (Cohort 2/200 mg QD, patient 2): No
CTCAE Grade of TEAE leading to dose interruption: Seizure (Cohort 2/200 mg QD, patient 3): 3
CTCAE Grade of TEAE leading to dose interruption: Sepsis (Cohort 2/200 mg QD, patient 3): 3
Duration of TEAE leading to dose interruption: Seizure (Cohort 2/200 mg QD, patient 3): 20 days
Duration of TEAE leading to dose interruption: Sepsis (Cohort 2/200 mg QD, patient 3): 20 days
Related to Compound (1-g), TEAE leading to dose interruption: Seizure (Cohort 2/200 mg QD, patient 3): No
Related to Compound (1-g), TEAE leading to dose interruption: Sepsis (Cohort 2/200 mg QD, patient 3): No
CTCAE Grade of TEAE leading to dose interruption: Pain in extremity (Cohort 2/200 mg QD, patient 4, first listed event): 1
